The nature of data set [1]: Downregulation of PSA mRNA expression in human LNCaP cells measured after 12 hrs by RT-PCR assay. Type of data set: functional, cell-based.
The target in data set [2] is 11-beta-hydroxysteroid dehydrogenase 1 (Homo sapiens, UniProt P28845). Put plainly: Inhibition of human 11beta-HSD1 expressed in HEK-293 cells incubated for 10 mins. Type of data set: cell-based, HEK293.
Data set [3] is described as follows: Dissociation constant, pKa of compound. Type of data set: physicochemical.

11-beta-hydroxysteroid dehydrogenase 1, sequence (P28845 whole entry): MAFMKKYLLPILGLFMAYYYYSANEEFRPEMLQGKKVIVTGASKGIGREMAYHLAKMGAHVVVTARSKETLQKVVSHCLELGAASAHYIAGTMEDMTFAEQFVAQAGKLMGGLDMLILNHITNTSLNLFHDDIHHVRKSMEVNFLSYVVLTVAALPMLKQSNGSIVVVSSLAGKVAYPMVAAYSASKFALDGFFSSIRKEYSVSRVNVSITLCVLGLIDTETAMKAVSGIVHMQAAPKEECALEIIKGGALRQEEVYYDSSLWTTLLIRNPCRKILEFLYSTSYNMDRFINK

On to `O=c1c(-c2ccc(O)cc2O)coc2cc(O[C@@H]3O[C@H](CO)[C@@H](O)[C@H](O)[C@H]3O)cc(O)c12`, for which the IC50 in data set [1] amounted to 18 µM.

The molecule `O=C1CC(c2ccccc2O)Oc2ccccc21` (stereo not drawn) [2'-HYDROXY-FLAVANONE] yielded an IC50 in data set [2] of 10 µM. Besides, in data set [3], the pKa came to 6.67.

Broadly, the IC50 is the point on the concentration scale where inhibition reaches its midpoint. A higher IC50 goes with a need for much substance. As a reminder, the pKa is the pH at which an ionisable group is half protonated. High values mean a weaker acid or stronger base, low ones a stronger acid or weaker base.

For the origin of these results see ChEMBL document CHEMBL5214891, “The subgroup of 2'-hydroxy-flavonoids: Molecular diversity, mechanism of action, and anticancer properties” (Bioorg Med Chem, 2021).
